Legend:
Experiment in all cases: radiometric filter-binding kinase assay
PIM2 (human) = PIM2 (human) (UniProt Q9P1W9)
TBK1 (human) = TBK1 (human) (UniProt Q9UHD2)
MAP3K7 TAB1 (human) = MAP3K7 TAB1 (human) (UniProt Q15750+O43318)
MAPK3 (human) = MAPK3 (human) (UniProt P27361)
RPS6KA3 KD1 KD2 (human) = RPS6KA3 KD1 KD2 (human) (UniProt P51812)
CSNK2A1 (human) = CSNK2A1 (human) (UniProt P68400)
CLK2 (human) = CLK2 (human) (UniProt P49760)
STK3 (human) = STK3 (human) (UniProt Q13188)
MAP2K6 (human) = MAP2K6 (human) (UniProt P52564)
MAP3K11 (human) = MAP3K11 (human) (UniProt Q16584)
[1] = test system: AKT1 (human), P31749 [S473D]
Chain of AKT1 (human), P31749 [S473D] (P31749 whole entry S473D, looked up): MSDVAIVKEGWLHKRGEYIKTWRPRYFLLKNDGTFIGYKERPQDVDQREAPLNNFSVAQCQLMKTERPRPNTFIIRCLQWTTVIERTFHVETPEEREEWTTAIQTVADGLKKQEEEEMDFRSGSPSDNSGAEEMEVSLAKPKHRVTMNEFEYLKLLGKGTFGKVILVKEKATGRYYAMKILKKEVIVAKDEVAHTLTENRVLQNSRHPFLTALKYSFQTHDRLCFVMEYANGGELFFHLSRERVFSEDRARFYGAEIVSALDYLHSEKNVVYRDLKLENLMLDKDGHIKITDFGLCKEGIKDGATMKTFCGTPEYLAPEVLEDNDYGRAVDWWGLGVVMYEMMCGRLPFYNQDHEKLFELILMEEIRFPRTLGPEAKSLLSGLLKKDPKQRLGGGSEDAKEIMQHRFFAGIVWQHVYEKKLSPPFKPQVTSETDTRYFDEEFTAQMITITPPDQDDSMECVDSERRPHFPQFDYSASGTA

MKNK2 (human) = MKNK2 (human) (UniProt Q9HBH9)
PLK1 (human) = PLK1 (human) (UniProt P53350)
DYRK3 (human) = DYRK3 (human) (UniProt O43781)
DAPK1 (human) = DAPK1 (human) (UniProt P53355)
Chain of DAPK1 (human) (P53355 whole entry, looked up): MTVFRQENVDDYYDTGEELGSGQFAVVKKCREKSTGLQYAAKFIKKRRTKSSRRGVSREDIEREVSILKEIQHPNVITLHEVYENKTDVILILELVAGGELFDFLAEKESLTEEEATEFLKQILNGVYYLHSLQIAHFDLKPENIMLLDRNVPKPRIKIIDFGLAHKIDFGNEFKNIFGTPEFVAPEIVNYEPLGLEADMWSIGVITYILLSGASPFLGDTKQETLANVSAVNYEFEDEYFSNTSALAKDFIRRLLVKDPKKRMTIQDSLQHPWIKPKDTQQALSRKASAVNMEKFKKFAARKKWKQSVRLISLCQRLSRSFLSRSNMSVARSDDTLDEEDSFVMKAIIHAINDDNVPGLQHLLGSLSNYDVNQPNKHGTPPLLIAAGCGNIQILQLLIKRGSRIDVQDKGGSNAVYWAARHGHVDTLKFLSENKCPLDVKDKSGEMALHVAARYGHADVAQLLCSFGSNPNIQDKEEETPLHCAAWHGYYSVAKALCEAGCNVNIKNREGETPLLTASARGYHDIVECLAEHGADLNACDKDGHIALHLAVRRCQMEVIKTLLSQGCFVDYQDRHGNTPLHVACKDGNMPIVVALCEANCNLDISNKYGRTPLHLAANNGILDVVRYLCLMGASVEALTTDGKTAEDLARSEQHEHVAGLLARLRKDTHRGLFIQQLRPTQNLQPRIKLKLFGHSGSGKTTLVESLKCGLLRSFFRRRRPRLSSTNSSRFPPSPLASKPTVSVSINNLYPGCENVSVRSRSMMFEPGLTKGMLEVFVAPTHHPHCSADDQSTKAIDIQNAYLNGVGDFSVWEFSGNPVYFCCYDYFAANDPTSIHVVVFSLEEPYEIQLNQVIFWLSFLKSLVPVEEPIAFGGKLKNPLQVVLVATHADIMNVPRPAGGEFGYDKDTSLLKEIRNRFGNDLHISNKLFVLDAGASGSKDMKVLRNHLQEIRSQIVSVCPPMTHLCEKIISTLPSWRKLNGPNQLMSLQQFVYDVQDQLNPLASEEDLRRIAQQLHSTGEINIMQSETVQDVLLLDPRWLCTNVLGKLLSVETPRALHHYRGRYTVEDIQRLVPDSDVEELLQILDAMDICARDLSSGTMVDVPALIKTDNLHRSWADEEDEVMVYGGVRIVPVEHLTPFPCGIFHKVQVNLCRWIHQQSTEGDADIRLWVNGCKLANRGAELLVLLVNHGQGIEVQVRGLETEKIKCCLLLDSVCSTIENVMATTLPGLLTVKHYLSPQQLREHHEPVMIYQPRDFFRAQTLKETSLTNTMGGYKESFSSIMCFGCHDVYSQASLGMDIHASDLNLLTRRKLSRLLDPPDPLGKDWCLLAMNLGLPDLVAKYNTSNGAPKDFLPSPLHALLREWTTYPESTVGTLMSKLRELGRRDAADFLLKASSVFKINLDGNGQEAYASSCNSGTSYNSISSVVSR

IRAK4 (human) = IRAK4 (human) (UniProt Q9NWZ3)
Chain of IRAK4 (human) (Q9NWZ3 whole entry, looked up): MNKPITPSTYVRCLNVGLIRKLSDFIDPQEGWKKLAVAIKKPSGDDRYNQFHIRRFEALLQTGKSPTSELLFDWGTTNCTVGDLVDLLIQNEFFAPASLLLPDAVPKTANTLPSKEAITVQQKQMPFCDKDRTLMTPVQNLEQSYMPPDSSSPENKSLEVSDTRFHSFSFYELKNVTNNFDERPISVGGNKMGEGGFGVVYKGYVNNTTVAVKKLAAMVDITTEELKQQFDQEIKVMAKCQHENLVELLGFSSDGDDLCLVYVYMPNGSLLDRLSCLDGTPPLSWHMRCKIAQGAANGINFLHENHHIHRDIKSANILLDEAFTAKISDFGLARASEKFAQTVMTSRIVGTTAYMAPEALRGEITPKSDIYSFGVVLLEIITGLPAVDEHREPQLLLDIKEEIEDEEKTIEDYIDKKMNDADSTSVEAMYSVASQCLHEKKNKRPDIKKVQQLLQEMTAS

EPHB3 (human) = EPHB3 (human) (UniProt P54753)
Chain of EPHB3 (human) (P54753 whole entry, looked up): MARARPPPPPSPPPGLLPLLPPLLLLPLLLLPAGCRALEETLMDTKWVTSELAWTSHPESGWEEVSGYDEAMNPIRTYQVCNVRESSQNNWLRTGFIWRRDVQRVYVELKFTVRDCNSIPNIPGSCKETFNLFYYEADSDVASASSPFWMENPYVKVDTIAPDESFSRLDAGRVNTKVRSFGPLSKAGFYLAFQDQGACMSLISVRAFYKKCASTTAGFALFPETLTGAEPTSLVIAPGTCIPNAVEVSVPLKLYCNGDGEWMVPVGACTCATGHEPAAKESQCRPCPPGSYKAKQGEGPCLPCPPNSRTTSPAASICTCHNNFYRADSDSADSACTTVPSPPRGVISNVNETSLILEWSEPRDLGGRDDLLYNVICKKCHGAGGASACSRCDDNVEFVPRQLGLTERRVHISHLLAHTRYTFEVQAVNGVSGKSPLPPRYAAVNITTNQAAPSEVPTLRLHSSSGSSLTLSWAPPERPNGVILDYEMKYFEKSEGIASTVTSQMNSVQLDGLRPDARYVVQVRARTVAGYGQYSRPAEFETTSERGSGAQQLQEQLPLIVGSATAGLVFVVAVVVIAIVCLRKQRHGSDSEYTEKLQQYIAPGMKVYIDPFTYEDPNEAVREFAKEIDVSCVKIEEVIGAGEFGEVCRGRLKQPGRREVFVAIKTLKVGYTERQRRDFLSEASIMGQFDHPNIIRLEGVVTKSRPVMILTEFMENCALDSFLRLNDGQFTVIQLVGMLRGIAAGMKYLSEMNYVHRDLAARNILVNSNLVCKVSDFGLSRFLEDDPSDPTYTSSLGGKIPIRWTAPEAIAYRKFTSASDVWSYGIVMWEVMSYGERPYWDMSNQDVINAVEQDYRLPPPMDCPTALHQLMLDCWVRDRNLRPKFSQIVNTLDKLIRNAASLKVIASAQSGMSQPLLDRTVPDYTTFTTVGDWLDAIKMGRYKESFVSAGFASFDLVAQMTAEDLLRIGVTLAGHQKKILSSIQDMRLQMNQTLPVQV

MAPKAPK5 (human) = MAPKAPK5 (human) (UniProt Q8IW41)
MAPK8 (human) = MAPK8 (human) (UniProt P45983)
IKBKE (human) = IKBKE (human) (UniProt Q14164)
PIM3 (human) = PIM3 (human) (UniProt Q86V86)
[2] = test system: RPS6KB1 (human), P23443 [T412E]
Chain of RPS6KB1 (human), P23443 [T412E] (P23443 whole entry T412E, looked up): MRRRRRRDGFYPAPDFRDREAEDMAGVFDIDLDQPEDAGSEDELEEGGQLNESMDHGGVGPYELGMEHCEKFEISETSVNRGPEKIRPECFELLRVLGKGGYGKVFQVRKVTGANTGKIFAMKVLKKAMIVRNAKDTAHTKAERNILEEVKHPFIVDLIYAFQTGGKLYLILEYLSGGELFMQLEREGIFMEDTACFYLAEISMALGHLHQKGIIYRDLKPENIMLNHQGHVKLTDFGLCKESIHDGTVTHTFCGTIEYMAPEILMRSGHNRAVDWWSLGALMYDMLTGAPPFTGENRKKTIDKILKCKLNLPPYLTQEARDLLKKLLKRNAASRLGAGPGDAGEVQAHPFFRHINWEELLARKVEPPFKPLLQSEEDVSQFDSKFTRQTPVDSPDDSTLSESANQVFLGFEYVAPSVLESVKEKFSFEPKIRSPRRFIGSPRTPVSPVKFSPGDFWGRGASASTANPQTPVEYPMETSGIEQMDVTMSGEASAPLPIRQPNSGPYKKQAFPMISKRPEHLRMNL

MAPK12 (human) = MAPK12 (human) (UniProt P53778)
PIM1 (human) = PIM1 (human) (UniProt P11309)
ROCK2 (rat) = conditions: accession and sequence are those of the human protein
DYRK1A (human) = DYRK1A (human) (UniProt Q13627)
IKBKB (human) = IKBKB (human) (UniProt O14920)
MAPK14 (human) = MAPK14 (human) (UniProt Q16539)
NTRK1 (human) = NTRK1 (human) (UniProt P04629)
RPS6KA1 KD1 KD2 (human) = RPS6KA1 KD1 KD2 (human) (UniProt Q15418)
MAPKAPK3 (human) = MAPKAPK3 (human) (UniProt Q16644)
PAK4 (human) = PAK4 (human) (UniProt O96013)
BRSK2 (human) = BRSK2 (human) (UniProt Q8IWQ3)
[3] = test system: SGK1 (human), O00141 [S422D]

Chain of MAPK3 (human) (P27361 whole entry, looked up): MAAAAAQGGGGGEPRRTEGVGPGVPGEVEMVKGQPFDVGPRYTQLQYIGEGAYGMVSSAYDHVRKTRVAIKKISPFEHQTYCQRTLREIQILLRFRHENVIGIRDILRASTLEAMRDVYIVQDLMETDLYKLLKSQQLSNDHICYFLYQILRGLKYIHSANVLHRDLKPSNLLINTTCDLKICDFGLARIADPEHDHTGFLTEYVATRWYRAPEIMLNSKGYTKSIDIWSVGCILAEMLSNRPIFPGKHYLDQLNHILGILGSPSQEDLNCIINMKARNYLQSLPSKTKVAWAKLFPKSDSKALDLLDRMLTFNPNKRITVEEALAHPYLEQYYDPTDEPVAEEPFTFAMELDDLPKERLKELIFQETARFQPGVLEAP
Chain of CSNK2A1 (human) (P68400 whole entry, looked up): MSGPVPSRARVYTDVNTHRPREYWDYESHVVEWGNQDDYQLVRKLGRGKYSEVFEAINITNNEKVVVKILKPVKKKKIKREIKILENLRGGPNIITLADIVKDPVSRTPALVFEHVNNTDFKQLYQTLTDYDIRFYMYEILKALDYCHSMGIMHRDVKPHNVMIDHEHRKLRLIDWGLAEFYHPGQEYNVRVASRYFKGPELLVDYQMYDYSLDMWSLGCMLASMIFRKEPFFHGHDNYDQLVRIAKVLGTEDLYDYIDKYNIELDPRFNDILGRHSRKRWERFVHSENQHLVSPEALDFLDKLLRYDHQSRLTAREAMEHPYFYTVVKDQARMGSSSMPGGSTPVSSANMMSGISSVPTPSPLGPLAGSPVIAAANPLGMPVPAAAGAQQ

## Cc1cc(NC(=O)c2cccc(NC(=O)/C=C/CN(C)C)c2)ccc1Nc1nccc(-c2cccnc2)n1
PIM2 (human); compound 0.1 µM
  residual activity: 104%
PIM2 (human); compound 1.0 µM
  residual activity: 99%
TBK1 (human); compound 1.0 µM
  residual activity: 106%
MAP3K7 TAB1 (human); compound 0.1 µM
  residual activity: 90%
MAP3K7 TAB1 (human); compound 1.0 µM
  residual activity: 66%
MAPK3 (human); compound 0.1 µM
  residual activity: 103%
MAPK3 (human); compound 1.0 µM
  residual activity: 99%
RPS6KA3 KD1 KD2 (human); compound 0.1 µM
  residual activity: 82%
RPS6KA3 KD1 KD2 (human); compound 1.0 µM
  residual activity: 76%
CSNK2A1 (human); compound 0.1 µM
  residual activity: 93%
CSNK2A1 (human); compound 1.0 µM
  residual activity: 77%
CLK2 (human); compound 0.1 µM
  residual activity: 102%
CLK2 (human); compound 1.0 µM
  residual activity: 88%
STK3 (human); compound 1.0 µM
  residual activity: 72%
MAP2K6 (human); compound 0.1 µM
  residual activity: 100%
MAP2K6 (human); compound 1.0 µM
  residual activity: 95%
MAP3K11 (human); compound 0.1 µM
  residual activity: 95%
MAP3K11 (human); compound 1.0 µM
  residual activity: 94%
[1]; compound 0.1 µM
  residual activity: 102%
[1]; compound 1.0 µM
  residual activity: 98%
MKNK2 (human); compound 0.1 µM
  residual activity: 84%
MKNK2 (human); compound 1.0 µM
  residual activity: 67%
PLK1 (human); compound 0.1 µM
  residual activity: 98%
PLK1 (human); compound 1.0 µM
  residual activity: 94%
DYRK3 (human); compound 0.1 µM
  residual activity: 94%
DYRK3 (human); compound 1.0 µM
  residual activity: 80%
DAPK1 (human); compound 0.1 µM
  residual activity: 102%
DAPK1 (human); compound 1.0 µM
  residual activity: 90%
IRAK4 (human); compound 1.0 µM
  residual activity: 86%
EPHB3 (human); compound 1.0 µM
  residual activity: 105%
MAPKAPK5 (human); compound 0.1 µM
  residual activity: 92%
MAPKAPK5 (human); compound 1.0 µM
  residual activity: 82%
MAPK8 (human); compound 0.1 µM
  residual activity: 13%
MAPK8 (human); compound 1.0 µM
  residual activity: 6%
IKBKE (human); compound 0.1 µM
  residual activity: 92%
IKBKE (human); compound 1.0 µM
  residual activity: 94%
PIM3 (human); compound 1.0 µM
  residual activity: 83%
[2]; compound 0.1 µM
  residual activity: 98%
[2]; compound 1.0 µM
  residual activity: 93%
MAPK12 (human); compound 0.1 µM
  residual activity: 99%
MAPK12 (human); compound 1.0 µM
  residual activity: 95%
PIM1 (human); compound 0.1 µM
  residual activity: 104%
PIM1 (human); compound 1.0 µM
  residual activity: 89%
ROCK2 (rat); compound 0.1 µM
  residual activity: 86%
ROCK2 (rat); compound 1.0 µM
  residual activity: 80%
DYRK1A (human); compound 0.1 µM
  residual activity: 98%
DYRK1A (human); compound 1.0 µM
  residual activity: 84%
IKBKB (human); compound 0.1 µM
  residual activity: 62%
IKBKB (human); compound 1.0 µM
  residual activity: 74%
MAPK14 (human); compound 0.1 µM
  residual activity: 105%
MAPK14 (human); compound 1.0 µM
  residual activity: 110%
NTRK1 (human); compound 1.0 µM
  residual activity: 92%
RPS6KA1 KD1 KD2 (human); compound 0.1 µM
  residual activity: 89%
RPS6KA1 KD1 KD2 (human); compound 1.0 µM
  residual activity: 81%
MAPKAPK3 (human); compound 1.0 µM
  residual activity: 90%
PAK4 (human); compound 1.0 µM
  residual activity: 78%
BRSK2 (human); compound 0.1 µM
  residual activity: 87%
BRSK2 (human); compound 1.0 µM
  residual activity: 77%

## O=C(NOCC(O)CO)c1ccc(F)c(F)c1Nc1ccc(I)cc1Cl (stereo not given)
PIM2 (human); compound 1.0 µM
  residual activity: 91%
PIM2 (human); compound 10.0 µM
  residual activity: 93%
TBK1 (human); compound 1.0 µM
  residual activity: 111%
TBK1 (human); compound 10.0 µM
  residual activity: 99%
MAP3K7 TAB1 (human); compound 1.0 µM
  residual activity: 91%
MAP3K7 TAB1 (human); compound 10.0 µM
  residual activity: 92%
MAPK3 (human); compound 1.0 µM
  residual activity: 100%
MAPK3 (human); compound 10.0 µM
  residual activity: 101%
RPS6KA3 KD1 KD2 (human); compound 1.0 µM
  residual activity: 98%
RPS6KA3 KD1 KD2 (human); compound 10.0 µM
  residual activity: 89%
CSNK2A1 (human); compound 1.0 µM
  residual activity: 111%
CSNK2A1 (human); compound 10.0 µM
  residual activity: 98%
CLK2 (human); compound 1.0 µM
  residual activity: 94%
CLK2 (human); compound 10.0 µM
  residual activity: 91%
STK3 (human); compound 1.0 µM
  residual activity: 71%
STK3 (human); compound 10.0 µM
  residual activity: 75%
MAP2K6 (human); compound 1.0 µM
  residual activity: 90%
MAP2K6 (human); compound 10.0 µM
  residual activity: 67%
MAP3K11 (human); compound 1.0 µM
  residual activity: 83%
MAP3K11 (human); compound 10.0 µM
  residual activity: 89%
[1]; compound 10.0 µM
  residual activity: 99%
MKNK2 (human); compound 1.0 µM
  residual activity: 89%
MKNK2 (human); compound 10.0 µM
  residual activity: 90%
PLK1 (human); compound 1.0 µM
  residual activity: 97%
PLK1 (human); compound 10.0 µM
  residual activity: 93%
DYRK3 (human); compound 1.0 µM
  residual activity: 107%
DYRK3 (human); compound 10.0 µM
  residual activity: 83%
DAPK1 (human); compound 1.0 µM
  residual activity: 97%
DAPK1 (human); compound 10.0 µM
  residual activity: 98%
IRAK4 (human); compound 1.0 µM
  residual activity: 77%
IRAK4 (human); compound 10.0 µM
  residual activity: 91%
EPHB3 (human); compound 1.0 µM
  residual activity: 113%
EPHB3 (human); compound 10.0 µM
  residual activity: 82%
MAPKAPK5 (human); compound 1.0 µM
  residual activity: 93%
MAPKAPK5 (human); compound 10.0 µM
  residual activity: 100%
MAPK8 (human); compound 1.0 µM
  residual activity: 87%
MAPK8 (human); compound 10.0 µM
  residual activity: 93%
IKBKE (human); compound 1.0 µM
  residual activity: 102%
IKBKE (human); compound 10.0 µM
  residual activity: 103%
PIM3 (human); compound 1.0 µM
  residual activity: 94%
PIM3 (human); compound 10.0 µM
  residual activity: 65%
[2]; compound 1.0 µM
  residual activity: 94%
[2]; compound 10.0 µM
  residual activity: 80%
MAPK12 (human); compound 1.0 µM
  residual activity: 80%
MAPK12 (human); compound 10.0 µM
  residual activity: 96%
PIM1 (human); compound 1.0 µM
  residual activity: 102%
PIM1 (human); compound 10.0 µM
  residual activity: 71%
ROCK2 (rat); compound 1.0 µM
  residual activity: 102%
ROCK2 (rat); compound 10.0 µM
  residual activity: 103%
[3]; compound 1.0 µM
  residual activity: 71%
[3]; compound 10.0 µM
  residual activity: 111%
DYRK1A (human); compound 1.0 µM
  residual activity: 91%
DYRK1A (human); compound 10.0 µM
  residual activity: 85%
IKBKB (human); compound 1.0 µM
  residual activity: 78%
IKBKB (human); compound 10.0 µM
  residual activity: 89%
MAPK14 (human); compound 1.0 µM
  residual activity: 102%
MAPK14 (human); compound 10.0 µM
  residual activity: 97%
NTRK1 (human); compound 1.0 µM
  residual activity: 79%
NTRK1 (human); compound 10.0 µM
  residual activity: 78%
RPS6KA1 KD1 KD2 (human); compound 1.0 µM
  residual activity: 122%
RPS6KA1 KD1 KD2 (human); compound 10.0 µM
  residual activity: 98%
MAPKAPK3 (human); compound 1.0 µM
  residual activity: 94%
MAPKAPK3 (human); compound 10.0 µM
  residual activity: 77%
PAK4 (human); compound 1.0 µM
  residual activity: 98%
PAK4 (human); compound 10.0 µM
  residual activity: 77%
BRSK2 (human); compound 1.0 µM
  residual activity: 108%
BRSK2 (human); compound 10.0 µM
  residual activity: 105%

From the kinase profiling compilation of Christmann-Franck et al. (2016)
